One compound from patent publication US20110081428A1, “Use of thioflavin-like compounds to increase life span and/or health span” (priority 2009, published 2011) can be followed below.

Type in all cases: in vivo, Caenorhabditis elegans
For assay [1], the system named is CL4176 (Aβ3-42 expressed in muscle). The assay is described as follows: Worm paralysis assay, Aβ model. The following applies: CL4176, 25° C.; 50 μM ThT, 100 μM curcumin.
Experimental: (§1) Scoring for paralysis was initiated 2 and 8 days after temperature upshift for CL4176 and AM140, respectively. […] For sensitivity to EtOH or levamisole resistance, CW152 gas-1 (fc21) X and ZZ26 unc-63(x26)I worms were picked into 0.4 M EtOH or 50 μM levamisole, respectively, equilibrated for 5 min, and scored for paralysis as described above. Treated and untreated worms were compared with an unpaired t-test (implemented in Prism 4, Graphpad™ Software, Inc., San Diego, Calif., USA).
The test system of assay [2] is AM140 (rmIs132[P(unc-54) Q35::YFP]). The assay is described as follows: Worm paralysis assay, polyQ model. The following applies: AM140, 25° C., 8 days; 50 μM ThT, 100 μM curcumin.
Experimental: as §1
The test system of assay [3] is HE250 [unc-52(e669su250)II]. The assay is described as follows: Worm paralysis assay, unc-52 ts mutant. The settings on record: HE250, 25° C., 36 h; 50 μM ThT, 100 μM curcumin, 100 μM rifampicin.
Experimental: as §1
Assay [4] relates to DAF-16 fusion protein [TJ356 daf-16::daf-16-gfp]. The assay is described as follows: DAF-16::GFP localization. The settings on record: ThT or curcumin treatment, no heat shock. On the procedure: For fluorescent microscopy, TJ356 zIs356 IV [daf-16::daf-16-gfp+rol-6] or CF2189 Is001(skn-1::gfp+rol-6) were paralyzed with 1 mM levamisole mounted on 1% agarose pads and imaged using Olympus BX51 (60× objective) and HCImage software (Hamamatsu). For immunofluorescence, N2, […], CB1157 unc-54(e1157) or CL4176 dvIs27 [myo-3::Aβ(3 to 42)-let 3′UTR(pAF29); pRF4 (rol-6(su1006))] worms were treated for 24-36 h with or without 50 μM ThT at 25° C. After this period the worms were collected, rinsed, and fixed in 4% paraformaldehyde overnight. […] Paramyosin and perlecans were detected with primary monoclonal antibodies 5-23 and MH3 (developed by Henry Epstein and Robert H. Waterston and obtained from the Developmental Studies Hybridoma Bank developed under the auspices of the NICHD and maintained by The University of Iowa, Department of Biology, Iowa City, Iowa 52242) and AlexaFluor 633 goat anti-mouse (Molecular Probes) as secondary antibody. Soluble oligomers and Aβ peptide were detected with anti polyclonal All (Invitrogen) and 6E10 monoclonal (Covance) primary antibodies, respectively, with AlexaFluor 568 goat anti-rabbit and AlexaFluor 488 goat anti-mouse (Molecular Probes) as secondary antibodies. Images were processed and quantified by using Image Analyst MK II (Novato, Calif.).

The next assay deals with HSP-16.2. The assay is described as follows: Western blot HSP-16.2. The following applies: 50 μM ThT, 100 μM curcumin, 4 and 7 days of treatment. As to the method: Peptide corresponding to amino acids 110-145 ([…]; SEQ ID NO:1) of HSP-16.2 was used to commercially synthesize antiserum (Invitrogen). Briefly, KLH-peptide was emulsified by mixing with an equal volume of Freund's adjuvant and injected into three subcutaneous dorsal sites for a total of 0.1 mg of peptide for immunization. The animals (rabbits) were bled, the blood allowed to clot and the serum collected by centrifugation. Monoclonal HSP-70 and Polyclonal HSF-1 primary antibodies were from stressgen (N27F3-4 and SPA-901, respectively).
Worms were transferred to siliconized eppendorf tubes, washed once in S-basal and frozen in liquid N2. Standard SDS-PAGE was performed using (4-12%) NOVEX gels and IVIES running buffer. Following transfer PVDF (BioRad) membranes were incubated with antisera (1:10000) or primary antibodies (1:1000) diluted in blocking buffer and then with secondary, goat anti-rabbit IgG antibody/horseradish peroxidase conjugate (Pierce), diluted 1:25000. Detection was undertaken with chemiluminescent reagents (SuperSignal, Pierce) and standard autoradiography.

With `COc1cc(/C=C/C(=O)CC(=O)/C=C/c2ccc(O)c(OC)c2)ccc1O` [curcumin, reference compound], the “proportion of paralyzed worms” value in assay [1] and in assay [2] was “significantly decrease the proportion of paralyzed worms” each time. In addition, in assay [3], the “paralysis phenotype of unc-52 mutant” value is “Protection”. For the same compound, the “DAF-16::GFP localization” value in assay [4] was “does not produce DAF-16::GFP relocalization”. Moreover, the HSP-16.2 protein levels entry in the assay with HSP-16.2 is listed as “increase the HSP-16.2 levels”.
